# Patent US9822368B2, “Modulators of intracellular chloride concentration for treating down syndrome” (Fondazione Istituto Italiano di Tecnologia, priority 2013, dated 2017)
# Entries after “also recorded” stand apart in the source; their conditions may differ.
# Key:
# [1] = test system: hippocampal CA3 pyramidal neurons; assay: Whole-cell voltage clamp recordings of spontaneous excitatory postsynaptic currents (sEPSCs) in acute brain slices; assay type: cell-based, Ts65Dn mice; details: acute bumetanide application, P15 Ts65Dn slices, -70 mV
# Text: FIG. 1 represents the effect of acute bumetanide on the spontaneous activity in Ts65Dn mice at P15 compared to control values. Whole-cell voltage clamp recordings of spontaneous excitatory postsynaptic currents (sEPSCs) at −70 mV from individual hippocampal CA3 pyramidal neurons in acute […] brain slices from P15 Ts65Dn. (A) Representative traces of sEPSCs recorded from Ts65Dn mice in control and in the presence of bumetanide. (B) Average values of frequency of sEPSCs recorded in control mice (n=9), in Ts65Dn mice (n=9) **p<0.006 (two-tails two-samples t-test) and with bumetanide application (n=9), ***p<0.001 (two-tails paired t-test).
# CA1 pyramidal neurons = assay: Cell-attached recording of spontaneous spiking activity in acute hippocampal slices; assay type: cell-based, Ts65Dn mice; details: Ts65Dn neurons
# [2] = test system: CA1 hippocampal pyramidal neurons; assay: Gramicidin perforated patch-clamp of GABA currents (reversal potential EC1) in hippocampal slices; assay type: cell-based, Ts65Dn and WT mice; details: for EC1 values: 20 min after bath application of bumetanide (10 μM)
# Text: The vertical dotted lines indicate the value of the reversal potential on the x axis. Insets, sample traces of GABA-induced currents at different holding potentials. Scale bars: vertical, 50 pA; horizontal, 50 ms. […] Average resting potentials (dotted lines) were not different in Ts65Dn and WT neurons.
# hippocampal CA3CA1 LTP = assay: Hippocampal CA3-CA1 LTP (fEPSP slope after TBS) in hippocampal slices; assay type: cell-based, Ts65Dn mice; details: bath application of bumetanide (10 μM), Ts65Dn slices, last 5 min of recordings, 60 min after TBS
# Protocol: FIG. 4 represents the effect of bumetanide bath application on hippocampal CA3CA1 LTP in Ts65Dn mice. […] Numbers in parentheses: number of animals utilized. Insets: Average of 10 fEPSP traces recorded for each experimental group before (continuous line) and 60 min after TBS (dashed line). Stimulus artefacts have been deleted from traces for clarity. Scale bars: vertical, 1 mV; horizontal, 10 ms.
# Ts65Dn mice [3] = assay: Contextual fear conditioning test; assay type: in vivo; details: for associative memory (contextual fear conditioning): Ts65Dn mice
# Text: (§1) FIG. 5 represents the effect of bumetanide systemic treatment on cognitive functions in behavioral tasks in Ts65Dn mice. […] (B) Top, schematic representation of the contextual fear conditioning test. […] (C) Top, schematic representation of the object location test. […] (D) Top, schematic representation of the novel object recognition task. […] For all panels, histograms represent average±SEM, whereas circles indicate data from single animals.
# Ts65Dn mice [4] = assay: Object location test; assay type: in vivo
# Text: as §1
# Ts65Dn mice [5] = assay: Novel object recognition task; assay type: in vivo; details: for object novelty discrimination (novel object recognition task): Ts65Dn mice
# Text: as §1
# [6] = test system: children with Down syndrome; details: even at doses associated with adverse effects; cited from earlier work
# [7] = summary statement, duration not stated
smiles,measurement,setting,value
CCCCNc1cc(C(=O)O)cc(S(N)(=O)=O)c1Oc1ccccc1 [bumetanide],ongoing excitatory glutamatergic activity (frequency of sEPSCs),[1],reduces elevated glutamatergic activity
same,spike frequency increase induced by GABA,CA1 pyramidal neurons; co-treatment GABA and bumetanide (10 μM),reverted this effect
same,EC1 values,[2]; Ts65Dn cells,rescued the depolarized EC1
same,EC1 values,[2]; WT mice,unaltered
same,polarity of the actions of GABA,"[2]; Ts65Dn mice, summary statement","restores LTP, hyperpolarizing GABA actions"
same,LTP (increase in the slope of fEPSP),hippocampal CA3CA1 LTP,restores LTP; also recorded: rescued this deficit
same,associative memory (contextual fear conditioning),Ts65Dn mice [3]; bumetanide systemic treatment for 1 week (1W),rescued memory deficit
same,associative memory (contextual fear conditioning),Ts65Dn mice [3]; bumetanide systemic treatment for 4 weeks (4W),rescued memory deficit
same,memory tests,Ts65Dn mice [3]; [7],rescues the behavioral deficient novel object recognition and memory tests
same,spatial memory (object location test),Ts65Dn mice [4]; after 1 week of treatment,rescued spatial memory deficits
same,spatial memory (object location test),Ts65Dn mice [4]; after 4 weeks of treatment,rescued spatial memory deficits
same,novel object recognition test,Ts65Dn mice [5]; [7],rescues the behavioral deficient novel object recognition
same,object novelty discrimination (novel object recognition task),Ts65Dn mice [5]; treatment for 1 week,restored object novelty discrimination
same,object novelty discrimination (novel object recognition task),Ts65Dn mice [5]; treatment for 4 weeks,restored object novelty discrimination
NC(=O)CN1CCCC1=O [piracetam],cognitive and behavioral measures,[6],neither cognitive nor behavioral measures demonstrated improvement
NCCCC(=O)O [GABA],spike frequency,"CA1 pyramidal neurons; bath application of GABA (10 μM), 10-12 weeks of age",increased spike frequency
